In patent US9277748B2, “Agonist/antagonist compositions and methods of use” (The United States of America, as represented by the …, priority 2010, dated 2016):
Entries after “also recorded” stand apart in the source; their conditions may differ. Read-outs that look alike come from different tables or passages of the source.

What was measured:
[1] = target: CHO cells expressing TRPV1 (CHO-rTRPV1) (Rattus norvegicus, UniProt O35433); assay: Intracellular Ca2+ imaging, agonist and antagonist added simultaneously; format: cell-based
Sequence of CHO cells expressing TRPV1 (CHO-rTRPV1) (O35433 whole entry): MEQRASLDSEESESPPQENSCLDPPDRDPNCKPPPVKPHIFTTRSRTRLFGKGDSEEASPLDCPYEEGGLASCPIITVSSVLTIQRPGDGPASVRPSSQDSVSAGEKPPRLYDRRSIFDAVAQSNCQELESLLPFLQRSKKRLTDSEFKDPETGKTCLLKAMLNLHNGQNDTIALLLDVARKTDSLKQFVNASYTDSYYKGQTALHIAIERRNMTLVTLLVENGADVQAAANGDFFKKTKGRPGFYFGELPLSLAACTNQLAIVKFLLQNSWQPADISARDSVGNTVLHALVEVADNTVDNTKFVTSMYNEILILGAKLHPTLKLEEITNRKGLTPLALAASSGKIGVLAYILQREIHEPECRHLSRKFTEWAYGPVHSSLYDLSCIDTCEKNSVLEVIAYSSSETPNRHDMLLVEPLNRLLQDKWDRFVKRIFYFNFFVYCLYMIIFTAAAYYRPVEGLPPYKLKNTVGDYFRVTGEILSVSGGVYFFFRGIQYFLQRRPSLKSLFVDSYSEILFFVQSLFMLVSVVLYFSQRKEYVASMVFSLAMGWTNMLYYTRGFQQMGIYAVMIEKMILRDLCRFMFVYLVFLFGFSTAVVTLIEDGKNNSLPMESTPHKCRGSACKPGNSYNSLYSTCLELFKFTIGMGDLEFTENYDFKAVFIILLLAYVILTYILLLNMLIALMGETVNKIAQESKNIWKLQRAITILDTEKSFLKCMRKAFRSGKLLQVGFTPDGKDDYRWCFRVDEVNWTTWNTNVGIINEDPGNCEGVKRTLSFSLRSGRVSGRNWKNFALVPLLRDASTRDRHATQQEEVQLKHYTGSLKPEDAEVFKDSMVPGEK
Experimental: The stable CHO cell clone expressing rTRPV1 (Tet-Off) was the generous gift of James E. Krause and Daniel N. Cortwright (Neurogen Corp., Branford, Conn., USA). These cells were cultured in maintaining medium (HAM F-12 supplemented with 10% FBS (USA sourced, Atlanta biologicals, Lawrenceville, Ga., USA), 25 mM HEPES, pH 7.5, 250 μg/ml geneticin (F-12, HEPES, and geneticin are from Invitrogen, Carlsbad, Calif., USA) and 1 mg/L tetracycline (Calbiochem, La Jolla, Calif., USA).
CHO-rTRPV1 cells were seeded on 25 mm round glass coverslips in 35×10 mm tissue culture dishes in maintaining medium. After 24 hours, the medium was replaced with inducing medium (maintaining medium without geneticin and tetracycline, but containing 1 mM sodium butyrate) to induce TRPV1 expression. Experiments were performed approximately 24 hours after induction. For fura-2 AM (Invitrogen, Carlsbad, Calif., USA) loading, the cells were incubated in DPBS containing calcium and magnesium (Invitrogen, Carlsbad, Calif., USA), 0.5 mg/ml BSA (Sigma, St. Louis, Mo., USA), and 5 μM Fura-2 AM for 2 hours in the dark at 20° C. After 2 hours, the loaded cells were washed 2× with DPBS without calcium and magnesium and immersed in maintaining medium until the measurements. The measurements were carried out in DPBS containing calcium and magnesium, plus 0.5 mg/ml BSA. The fluorescence of individual cells treated simultaneously with a single dose of agonist and antagonist was measured with an InCyt Im2 fluorescence imaging system (Intracellular Imaging, Cincinnati, Ohio, USA). The cells within the selected field were illuminated alternately at 340 and 380 nm. Emitted light >510 nm was measured. To determine the approximate intracellular Ca^2+ concentrations, the system was calibrated using a fura-2 calibration kit (Invitrogen, Carlsbad, Calif., USA). Data were analyzed with the Incyt software and tabulated with Microsoft Excel spreadsheet and graphed with Origin 6.0 (OriginLab Corp., Northhampton, Mass., USA) software.
The TRPV1 agonist and antagonist were added simultaneously to fura-2 AM loaded CHO-rTRPV1 cells after 90 seconds from the beginning of the measurement (baseline) and monitored continuously for an additional 10 minutes. Inhibition values were compared to the maximally effective dose of capsaicin (300 nM) in the same experiment (see FIGS. 2A-2E) or to the indicated concentration of capsaicin (see FIGS. 3A-3E). Experiments were performed three times, each on different days with approximately 30-49 cells measured.

subjects = conditions: cited from earlier work

For `CC(C)(C)c1ccc(/C=C/C(=O)Nc2ccc3c(c2)OCCO3)cc1` [AMG9810], the “initial response to capsaicin as ratio of antagonist to agonist is raised” value [1] was “decrease in the initial response to capsaicin”.
With `CC(C)(C)c1ccc(NC(=O)N2CCN(c3ncccc3Cl)CC2)cc1` [BCTC] the “suitability of antagonist combined with capsaicin to give the desired properties” value (“suitability of antagonist combined” below) [1] was “appropriate ratios of antagonist to agonist exist; also recorded: give the desired properties”.
For `C=C(C)[C@]12C[C@@H](C)[C@@]34O[C@](Cc5ccccc5)(O[C@@H]1[C@@H]3C=C(COC(=O)Cc1cc(I)c(O)c(OC)c1)C[C@]1(O)C(=O)C(C)=C[C@@H]41)O2` [Iodo-RTX], the “suitability of antagonist combined” value ([1]; criterion: maximal response to agonist decreased by not more than 20%, response reduced by at least 80% later, FIGS. 2 and 3) was “give the desired properties” and the “suitability of antagonist combined” value ([1]; criterion: maximal response to agonist decreased by not more than 20%, response reduced by at least 80% later, FIGS. 2 and 3, listed as IodoRTX) was “appropriate ratios of antagonist to agonist exist”.
For `COc1cc(CNC(=O)CCCC/C=C/C(C)C)ccc1O` [capsaicin, trans-8-methyl-N-vanillyl-6-nonenamide], the “intracellular calcium response to agonist” value ([1]; CHO cells expressing TRPV1, FIGS. 2A-2E) is given as “persistent elevation of intracellular calcium”, the maximally effective dose ([1]; fura-2 AM loaded CHO-rTRPV1 cells) is given as 300 nM and the proper inflammation (subjects; at 0.90% concentration, small population of individuals) is given as “does not achieve proper inflammation”. The proper inflammation (subjects; at 1.45% concentration) was “all subjects achieve proper inflammation” and the “most potent level that can be delivered without potential hazards” value (subjects; concentration in spray) was 1.45%.
For `Oc1cc2c(cc1O)CN(C(=S)NCCc1ccc(Cl)cc1)CCC2` [capsazepine], the “initial response to capsaicin as ratio of antagonist to agonist is raised” value ([1]; FIG. 2D and FIG. 2E) was “decrease in the initial response to capsaicin”.
